Patent publication US11773085B2 (Foghorn Therapeutics Inc., priority 2018, dated 2023)

How the values were obtained:
BRD9 bromodomain = BRD9 bromodomain (Homo sapiens (Human), UniProt Q9H8M2); assay: BRD9 bromodomain TR-FRET competition binding assay; settings: 3 nM Flag-BRD9, 3.75 nM biotinylated ligand, 90 minutes at room temperature
Method: Cleaved His tag was removed by purification.
A mixture of biotinylated-ligand and SureLight™ Allophycocyanin-Streptavidin (APC-SA, PerkinElmer AD0201) in 50 mM HEPES (pH 7.4), 50 mM NaCl, 1 mM TCEP (pH 7), 0.01% (v/v) Tween-20, 0.01% (w/v) bovine serum albumin was added to a white 384-well PerkinElmer Proxiplate Plus plate. DMSO or 3-fold serially diluted compounds were then added to the Proxiplate followed by addition of Flag-BRD9. After a 10 minute incubation at room temperature, Eu-W1024 anti-FLAG (PerkinElmer, AD0273) was added.

[1] = target: Nanoluciferase-BRD9 fusion protein (3×FLAG-NLuc-BRD9) (Homo sapiens (Human), UniProt Q9H8M2); assay: SYO1 BRD9 NanoLuc degradation assay; format: cell-based; settings: SYO-1 cells expressing 3×FLAG-NLuc-BRD9, 6 hours, 1 μM top dose; read-out: SYO1 BRD9-NanoLuc degradation IC50
Method: A stable SYO-1 cell line expressing 3×FLAG-NLuc-BRD9 was generated. On day 0 cells were seeded in 30 μL media into each well of 384-well cell culture plates. The seeding density was 8000 cells/well. […] Subsequently plates were incubated for 6 hours in a standard tissue culture incubator and equilibrated at room temperature for 15 minutes. Nanoluciferase activity was measured by adding 15 μL of freshly prepared Nano-Glo Luciferase Assay Reagent (Promega N1130), shaking the plates for 10 minutes and reading the bioluminescence using an EnVision reader.
The Inhibition % was calculated using the following formula: % Inhibition=100×(LumHC−LumSample)/(LumHC−LumLC). DMSO treated cells are employed as High Control (HC) and 1 μM of a known BRD9 degrader standard treated cells are employed as Low Control (LC).

Row | SMILES | IC50 (BRD9 bromodomain) | DC50 [1]
1 | COc1cc(-c2cn(C)c(=O)c3cnccc23)cc(OC)c1CN1CC(C(=O)O)C1 [Compound B21, 1-[[2,6-dimethoxy-4-(2-methyl-1-oxo-1,2-dihydro-2,7-naphthyridin-4-yl)phenyl]methyl]azetidine-3-carboxylic acid] | 10 to 100 nM | 
2 | Cn1cc(C(=O)NCc2ccccc2)c2ccncc2c1=O [Compound B3] | > 1000 nM | 
3 | C/C=C/Cn1cc(-c2ccc(CNC)c(C#N)c2)c2cc(C)[nH]c2c1=O [Compound B15] | 10 to 100 nM | 
4 | CCC(=O)Nc1cc(-c2cc(OC)c(CN(C)C)c(OC)c2)cn(C)c1=O [Compound B30, N-(5-[4-[(dimethylamino)methyl]-3,5-dimethoxyphenyl]-1-methyl-2-oxo-1,2-dihydropyridin-3-yl)propanamide] | 100 to 1000 nM | 
5 | COc1cc(-c2cc(NC(=O)N(C)C)c3nnc(C)n3c2)cc(OC)c1CN(C)C [Compound B57, 1-(6-[4-[(dimethylamino)methyl]-3,5-dimethoxyphenyl]-3-methyl-[1,2,4]triazolo[4,3-a]pyridin-8-yl)-3,3-dimethylurea] | > 1000 nM | 
6 | COc1cc(-c2cc(NC(C)=O)c3nnc(C)n3c2)cc(OC)c1CN(C)C [Compound B60, N-(6-[4-[(dimethylamino)methyl]-3,5-dimethoxyphenyl]-3-methyl-[1,2,4]triazolo[4,3-a]pyridin-8-yl)acetamide] | 10 to 100 nM | 
7 | COc1cc(-c2cn(C)c(=O)c3cnccc23)cc(OC)c1CN(C)S(C)(=O)=O [Compound B38, N-[[2,6-dimethoxy-4-(2-methyl-1-oxo-2,7-naphthyridin-4-yl)phenyl]methyl]-N-methylmethanesulfonamide] | < 10 nM | 
8 | CCOC(=O)Nc1c(C)c(-c2cc(OC)c(CN(C)C)c(OC)c2)cn(C)c1=O [Compound B42, ethyl N-(5-[4-[(dimethylamino)methyl]-3,5-dimethoxyphenyl]-1,4-dimethyl-2-oxo-1,2-dihydropyridin-3-yl)carbamate] | > 1000 nM | 
9 | COc1cc(-c2nn(C)c(=O)c3cnccc23)cc(OC)c1CN(C)C [Compound B62, 1-(4-((dimethylamino)methyl)-3,5-dimethoxyphenyl)-3-methylpyrido[3,4-d]pyridazin-4(3H)-one 2,2,2-trifluoroacetate] | 10 to 100 nM | 
10 | CC(=O)c1cc(-c2cccc3nccn23)c2cc(N3CCN(C)CC3)ccn12 [Compound B17, 1-(1-[imidazo[1,2-a]pyridin-5-yl]-7-(4-methylpiperazin-1-yl)indolizin-3-yl)ethan-1-one] | 100 to 1000 nM | 
11 | COc1cc(-c2cn(C)c(=O)c3cnccc23)cc(OC)c1CN1CC(N)C1 [Compound B20, 4-[4-[(3-aminoazetidin-1-yl)methyl]-3,5-dimethoxyphenyl]-2-methyl-1,2-dihydro-2,7-naphthyridin-1-one] | < 10 nM | 
12 | CC(=O)c1cc(-c2cccc3nccn23)c2cc(N3CCOCC3)ccn12 [Compound B16, 1-(1-[imidazo[1,2-a]pyridin-5-yl]-7-(morpholin-4-yl)indolizin-3-yl)ethan-1-one] | 100 to 1000 nM | 
13 | COc1cc(/C=C/c2c(C)noc2C)cc(OC)c1CN(C)C [Compound B68] | > 1000 nM | 

The remaining lines, values ahead:

Row | IC50 (BRD9 bromodomain) | DC50 [1] | SMILES
14 | 10 to 100 nM | < 10 nM | COc1cc(NCC(=O)NCCCCCCCCNc2cccc3c2C(=O)N(C2CCC(=O)NC2=O)C3=O)cc(-c2cn(C)c(=O)c3cnccc23)c1 (centres unmarked) [Compound D8, N-(8-[[2-(2,6-dioxopiperidin-3-yl)-1,3-dioxo-2,3-dihydro-1H-isoindol-4-yl]amino]octyl)-2-[[3-methoxy-5-(2-methyl-1-oxo-1,2-dihydro-2,7-naphthyridin-4-yl)phenyl]amino]acetamide formic acid]
15 | 10 to 100 nM | 10 to 100 nM | COc1cc(-c2cn(C)c(=O)c3cnccc23)cc(OC)c1CN(C)CC(=O)NCCCCCNc1cccc2c1C(=O)N(C1CCC(=O)NC1=O)C2=O (centres unmarked) [Compound D3, 2-([[2,6-dimethoxy-4-(2-methyl-1-oxo-1,2-dihydro-2,7-naphthyridin-4-yl)phenyl]methyl](methyl)amino)-N-(5-[[2-(2,6-dioxopiperidin-3-yl)-1,3-dioxo-2,3-dihydro-1H-isoindol-4-yl]amino]pentyl)acetamide formic acid]
16 | 10 to 100 nM | < 10 nM | COc1cc(-c2cn(C)c(=O)c3cnccc23)cc(OCC(=O)NCCCCCCCCNc2cccc3c2C(=O)N(C2CCC(=O)NC2=O)C3=O)c1CN(C)C (centres unmarked) [Compound D9, 2-(2-((dimethylamino)methyl)-3-methoxy-5-(2-methyl-1-oxo-1,2-dihydro-2,7-naphthyridin-4-yl)phenoxy)-N-(8-((2-(2,6-dioxopiperidin-3-yl)-1,3-dioxoisoindolin-4-yl)amino)octyl)acetamide]
17 |  | > 1000 nM | COc1cc(-c2cn(C)c(=O)c3cnccc23)cc(OC)c1CN(C)CCc1cccc2c1C(=O)N(C1CCC(=O)NC1=O)C2=O (centres unmarked) [Compound D17, 4-[2-([[2,6-dimethoxy-4-(2-methyl-1-oxo-2,7-naphthyridin-4-yl)phenyl]methyl](methyl)amino)ethyl]-2-(2,6-dioxopiperidin-3-yl)isoindole-1,3-dione]
18 | 10 to 100 nM | 100 to 1000 nM | COc1cc(-c2cn(C)c(=O)c3cnccc23)cc(OC)c1CN(C)CCN(C)CCOCCOc1cccc2c1C(=O)N(C1CCC(=O)NC1=O)C2=O (centres unmarked) [Compound D1, 4-[2-(2-[[2-([[2,6-dimethoxy-4-(2-methyl-1-oxo-2,7-naphthyridin-4-yl)phenyl]methyl](methyl)amino)ethyl](methyl)amino]ethoxy)ethoxy]-2-(2,6-dioxopiperidin-3-yl)isoindole-1,3-dione; formic acid]
19 | 10 to 100 nM | > 1000 nM | COc1cc(-c2cn(C)c(=O)c3cnccc23)cc(OC)c1CN(C)CCCCCCCC(=O)N[C@H](C(=O)N1C[C@H](O)C[C@H]1C(=O)NCc1ccc(-c2scnc2C)cc1)C(C)(C)C [Compound D19, (2S,4R)-1-[(2S)-2-[8-([[2,6-dimethoxy-4-(2-methyl-1-oxo-2,7-naphthyridin-4-yl)phenyl]methyl](methyl)amino)octanamido]-3,3-dimethylbutanoyl]-4-hydroxy-N-[[4-(4-methyl-1,3-thiazol-5-yl)phenyl]methyl]pyrrolidine-2-carboxamide]
20 | 10 to 100 nM | 10 to 100 nM | COc1cc(-c2cn(C)c(=O)c3cnccc23)cc(OC)c1CN(C)CC(=O)N(C)CCOCCOCCNc1cccc2c1C(=O)N(C1CCC(=O)NC1=O)C2=O (centres unmarked) [Compound D13, 2-((2,6-dimethoxy-4-(2-methyl-1-oxo-1,2-dihydro-2,7-naphthyridin-4-yl)benzyl)(methyl)amino)-N-(2-(2-(2-((2-(2,6-dioxopiperidin-3-yl)-1,3-dioxoisoindolin-4-yl)amino)ethoxy)ethoxy)ethyl)-N-methylacetamide]
21 | 10 to 100 nM | > 1000 nM | COc1cc(-c2cn(C)c(=O)c3cnccc23)cc(OC)c1CN(C)Cc1cccc2c1C(=O)N(C1CCC(=O)NC1=O)C2=O (centres unmarked) [Compound D15, 4-(((2,6-dimethoxy-4-(2-methyl-1-oxo-1,2-dihydro-2,7-naphthyridin-4-yl)benzyl)(methyl)amino)methyl)-2-(2,6-dioxopiperidin-3-yl)isoindoline-1,3-dione formic acid]
22 | < 10 nM | < 10 nM | COc1cc(-c2cn(C)c(=O)c3cnccc23)cc(OC)c1CN(C)C(=O)CCCCOc1cccc2c1C(=O)N(C1CCC(=O)NC1=O)C2=O (centres unmarked) [Compound D12, N-[[2,6-dimethoxy-4-(2-methyl-1-oxo-1,2-dihydro-2,7-naphthyridin-4-yl)phenyl]methyl]-5-[[2-(2,6-dioxopiperidin-3-yl)-1,3-dioxo-2,3-dihydro-1H-isoindol-4-yl]oxy]-N-methylpentanamide]
23 | < 10 nM | > 1000 nM | COc1cc(-c2cn(C)c(=O)c3cnccc23)cc(OC)c1CN(C)C(=O)CCOc1cccc2c1C(=O)N(C1CCC(=O)NC1=O)C2=O (centres unmarked) [Compound D14, N-[[2,6-dimethoxy-4-(2-methyl-1-oxo-1,2-dihydro-2,7-naphthyridin-4-yl)phenyl]methyl]-3-[[2-(2,6-dioxopiperidin-3-yl)-1,3-dioxo-2,3-dihydro-1H-isoindol-4-yl]oxy]-N-methylpropanamide]
24 | 10 to 100 nM | < 10 nM | COc1cc(-c2cn(C)c(=O)c3cnccc23)cc(OC)c1CN(C)CC(=O)NCCCCCCCCNc1cccc2c1C(=O)N(C1CCC(=O)NC1=O)C2=O (centres unmarked) [Compound D2, 2-([[2,6-dimethoxy-4-(2-methyl-1-oxo-1,2-dihydro-2,7-naphthyridin-4-yl)phenyl]methyl](methyl)amino)-N-(8-[[2-(2,6-dioxopiperidin-3-yl)-1,3-dioxo-2,3-dihydro-1H-isoindol-4-yl]amino]octyl)acetamide formic acid]
25 |  | < 10 nM | COc1cc(-c2cn(C)c(=O)c3cnccc23)cc(OC)c1CN(C)C(=O)CCCCCOc1cccc2c1C(=O)N(C1CCC(=O)NC1=O)C2=O (centres unmarked) [Compound D4, N-[[2,6-dimethoxy-4-(2-methyl-1-oxo-1,2-dihydro-2,7-naphthyridin-4-yl)phenyl]methyl]-6-[[2-(2,6-dioxopiperidin-3-yl)-1,3-dioxo-2,3-dihydro-1H-isoindol-4-yl]oxy]-N-methylhexanamide]
